Data on 1 sequence can be found in US20210113685A1, “POLYPEPTIDE DRUG AGAINST HEPATITIS B VIRUS PROTEIN” (priority 2011, published 2021).

Where no end group is shown, it is not given here.

Data set [1] has as its system NF-κB promoter (HBx-activated). The data set can be described thus: Dual-luciferase reporter gene analysis (pGL3-NF-κB). It counts as cell-based. The conditions noted are these: incubation with synthesized polypeptide 0.1-100 μM, 24 hr. The text has this:
Two cell lines were adopted in the experiment. One is constitutive expression HBx of hepatoma cell HepG2 (stable transfected hepatoma cell HepG2 expressing HBx), and the other one is constitutive expression Hepatitis B virus complete genome of hepatoma cell HepG2.2.15 (stable transfected hepatoma cell HepG2 expressing HBV complete genome). Because HBx functions to activate the transcription factor NF-κB, it is possible to detect the inhibition of HBx at the molecular level by reporter gene-based assays. Due to the role of HBx on promoting the growth and proliferation of hepatoma cells, it can test the effects of the polypeptides on the proliferation of HepG2-X cell and HepG2.2.15 cell by (3-(4,5-dimethylthiazol-2-yl)-2,5-diphenyltetrazolium bromide (MTT).
(1) Plated the cells at exponential phase (the cells in the above Table 1) at a density 0.75×10^5 cells/ml in a 24-well plate with 500 μl per well. Ideally cells should be 90% confluent prior to transfection;
(2) Reporter gene vectors containing promoter (pGL3-NF-κB, 0.3 μg, purchased from Yuanhaoping (Tianjin) Biological Technology Co., Ltd) were transfected into cells by using lipofectamine transfection reagent, and Renilla luciferase expressing vectors (pRL-TK, 0.1 μg, purchased from Promega) were transfected as controls. Simultaneously, different amount of polypeptides plasmids from Step A (0.25 μg, 0.5 μg and 0.75 μg) or different concentrations of synthesized polypeptides from Example 1 (0.1 μM, 1 μM, 10 μM and 100 μM) were added, and repeated each concentration in three wells;
(3) After transfection for 48 hr (or after incubation with artificial synthesized polypeptide Anti-HBxP1 # for 24 hr), washed the cells with PBS for three times;
(4) Added 100 μl 1× Passive Lysis Buffer (PLB) into transfected cells per well, and lysed the cell at room temperature for 15 min. Transferred the cell lysate to a 1.5 ml Eppendorf (EP) tube;
(5) Centrifuged at 12,000 rpm for 30 min, and transferred the supernatant to a fresh EP tube;
(6) Added an aliquot of cell lysate into each EP tube with 100 μl Luciferase Assay Buffer II (LARII), and mixed well;
(7) Immediately put the EP tubes into a Luminometer (manufactured by Turner Biosystems). Within 10 sec after 2 sec balance, measured the luminescence.
(8) Added 100 μl fluorescence bleacher. Firefly luciferase was quenched, while Renilla luciferase started to react.
(9) Measured the luminescence within 10 sec.
The relative activity was the ratio of the value of the first luminescence to the value of the second luminescence.
Results shown are representative of three independent experiments according to Mean±SD, and statistical significance was calculated using Student's t test.

Data set [2] concerns HepG2-X cells. The data set can be described thus: MTT assay, HepG2-X cells. The data set is classed as cell-based. The conditions noted are these: synthesized polypeptide 0.1-100 μM, 48 hr. The text has this: (§1) Two cell lines were adopted in the experiment. One is constitutive expression HBx of hepatoma cell HepG2 (stable transfected hepatoma cell HepG2 expressing HBx), and the other one is constitutive expression Hepatitis B virus complete genome of hepatoma cell HepG2.2.15 (stable transfected hepatoma cell HepG2 expressing HBV complete genome). Because HBx functions to activate the transcription factor NF-κB, it is possible to detect the inhibition of HBx at the molecular level by reporter gene-based assays. […]
(§2) (1) Plate the cells: suspended the cells at exponential phase (the cells in the above Table 1) in RPMI1640 or DMEM medium with 10% FBS, and plated 4000-5000 cells in a 96-well plate with 100 μl per well; Culture the cells: Within 12 hr for adhesion of cultured cells, different amount of polypeptides plasmids from Step A (0.25 μg, 0.5 μg and 0.75 μg) or different concentrations of synthesized polypeptides from Example 1 (0.1 μM, 1 μM, 10 μM and 100 μM) were transfected with 8 wells for each concentration, and were incubated for 48 hr in the same condition. 0.3 μg pEGFP-C2 plasmids and 1 μg p-Anti-HBxP1 # were cotransfected, and using a fluorescence microscope to check for cells containing the GFP plasmid after 24 hr to make sure the percentage of cells that contain GFP is over 70%; […]
(§3) (4) Comparison: Read in an ELISA reader at 490 nm to measure the absorbance for each well. […]

Data set [3] concerns L-O2-X cells. The data set can be described thus: MTT assay, L-O2-X cells. The conditions noted are these: synthesized polypeptide 0.1-100 μM, 48 hr. The data set is classed as cell-based. As for the experimental part:
(§4) (1) Plate the cells: suspended the cells at exponential phase (the cells in the above Table 1) in RPMI1640 or DMEM medium with 10% FBS, and plated 4000-5000 cells in a 96-well plate with 100 μl per well; Culture the cells: Within 12 hr for adhesion of cultured cells, different amount of polypeptides plasmids from Step A (0.25 μg, 0.5 μg and 0.75 μg) or different concentrations of synthesized polypeptides from Example 1 (0.1 μM, 1 μM, 10 μM and 100 μM) were transfected with 8 wells for each concentration, and were incubated for 48 hr in the same condition. 0.3 μg pEGFP-C2 plasmids and 1 μg p-Anti-HBxP1 # were cotransfected, and using a fluorescence microscope to check for cells containing the GFP plasmid after 24 hr to make sure the percentage of cells that contain GFP is over 70%;
(§5) (2) Coloration: added 20 μl MTT solution (5 mg/ml MTT in PBS buffer (pH7.4)) for each well;
(§6) (3) Incubated for 4 hr, and carefully aspirate off the supernatant from the wells. Added 150 μl DMSO into each well, shaking for 10 min until the crystals dissolved;
(§7) (4) Comparison: Read in an ELISA reader at 490 nm to measure the absorbance for each well. Results were calculated by using Student's t-test.

Data set [4] deals with HepG2.2.15 cells. Put plainly: MTT assay, HepG2.2.15 cells. The data set is classed as cell-based. The conditions noted are these: synthesized polypeptide 0.1-100 μM, 48 hr.
Text: as §1, §2, §3

Data set [5] deals with HepG2. The data set can be described thus: MTT assay, HepG2 cells. It counts as cell-based. Conditions: HepG2 (no HBx); synthesized polypeptide 0.1-100 μM, 48 hr. As for the experimental part:
as §4, §5, §6, §7
(Formazan colour is commonly taken as a measure of viable cells.)

In data set [6] the test system is L-O2. The data set can be described thus: MTT assay, L-O2 cells. It counts as cell-based. The conditions noted are these: L-O2 (no HBx); synthesized polypeptide 0.1-100 μM, 48 hr. As for the experimental part:
as §4, §5, §6, §7

For data set [7], the system named is HepG2-X cells. The data set can be described thus: Inoculation experiment in nude mice, HepG2-X cells. It counts as in vivo. The method, then: (§8) Suspended the HepG2-X or HepG2.2.15 cells at exponential phase by treating with trypsin, and counted the number of cells to dilute to 1×10^7 cells/ml with physiological saline, and then store in the ice water. 12 Mice used were 4- to 6-week-old BALB/C females, and were randomly divided into two groups: @Control group, injected 0.2 ml diluted cells to the armpit of left forelimb for each mouse, and only injected 0.5 ml ddH2O (without polypeptide drugs); 0 experimental group (the treatment dose was 10 mg/kg), injected 0.2 ml diluted cells to the armpit of left forelimb for each mouse, and within 7 days after the injection, tumor volume (V=L×W^2×0.5) reached to 100 mm^3. And then, injected the above mentioned polypeptide drugs (dried polypeptide drug solved in 0.5 ml ddH2O) once in two day, total 10 times, and recorded the tumor volume before injection. Within 24 hr after the last dose, weighted the mice, and killed the mice to weight the tumor tissue, anti-tumor rate was calculated as follow: […]

Data set [8] has as its system HepG2.2.15 cells. The data set can be described thus: Inoculation experiment in nude mice, HepG2.2.15 cells. It counts as in vivo. As for the experimental part: as §8
The nature of data set [9]: Polypeptide drugs acute toxicity test. It counts as in vivo, Kunming white mice. The conditions noted are these: 1 g/kg tail intravenous injection; observed 24 hr. As for the experimental part: Control group and experimental group contained 10 Kunming white mice, with 5 females and 5 males, respectively. Experimental group injected Anti-HBxP1 # with the concentration of 1 g/kg ([…] dried polypeptide drug solved in 0.124 ml ddH2O) by tail intravenous injection; control group, injected 0.25 ml ddH2O. Consecutively observed the mice for 24 hr after injection.

GSAVMFSSKERG [Anti-HBxP1 #]: the “activity of NF-κB promoter” value in [1] (HepG2 (no HBx)) was “no effect”; in data set [1] (HepG2-X cells), “inhibits”; in [1] (HepG2.2.15 cells), “inhibits”; in data set [1] (L-O2 (no HBx)), “no effect”; in data set [1] (L-O2-X cells), “inhibits”. Besides, the “growth of the hepatoma cells (MTT assay)” value was “inhibits” in data set [2]; “inhibits” in data set [3]; “inhibits” in data set [4]; “no effect” in data set [5]; “no effect” in data set [6]. Moreover, the “growth and proliferation of HepG2-X cells in nude mice” value in data set [7] (10 mg/kg, P<0.01) was “inhibits”. Also, the “Anti-tumor rate (%)” value in data set [7] (HepG2-X tumor, 10 mg/kg once in two day, 10 times) came out at 60.22%; in data set [8] (HepG2.2.15 tumor, 10 mg/kg once in two day, 10 times), 41.27%. For the same sequence, the “Tumor weight (X ± S, g)” value in data set [7] (HepG2-X tumor, 10 mg/kg once in two day, 10 times, within 24 hr after last dose) is given as 0.37 ± 0.14 g; in [8] (HepG2.2.15 tumor, 10 mg/kg once in two day, 10 times, within 24 hr after last dose), 0.37 ± 0.19 g. Moreover, the “Weight (X ± S, g) After dose” value in data set [7] (mouse body weight after 10 mg/kg once in two day, 10 times, HepG2-X tumor) was determined as 21.08 ± 0.74 g; in data set [8] (mouse body weight after 10 mg/kg once in two day, 10 times, HepG2.2.15 tumor) it was 21.08 ± 0.81 g. Besides, the “Weight (X ± S, g) Before dose” value in data set [7] (mouse body weight before dose, HepG2-X tumor, experimental group) is reported as 15.75 ± 0.99 g; in data set [8] (mouse body weight before dose, HepG2.2.15 tumor, experimental group), 15.17 ± 1.17 g. Moreover, the “growth and proliferation of HepG2.2.15 cells in nude mice” value in data set [8] (10 mg/kg, P<0.01) is reported as “inhibits”. For the same sequence, the “behaviors of mice (acute toxicity)” value in data set [9] was “do not have abnormal behaviors”. The “changes in weight compared with control group (acute toxicity)” value in data set [9] is “no abnormal changes in weight”.
